The test relates to CD8+ and CD4+ T cells (autologous CD3+ Pan-T cells isolated from human normal PBMCs). Nature of the test: Endogenous autologous normal donor restimulation assay (Ad5-transduced CD1c+ dendritic cells, TNFα/IFNγ flow cytometry). It is filed as cell-based. To be noted: Table 27, endogenous expression, peptide pool restimulation, highest across sixteen normal donors. How it is done: CD1c+ Dendritic Cells (DC) isolated from human normal PBMCs were thawed using media (IMDM (Gibco) supplemented with glutamine, HEPES, 5% human serum (Sigma), and 1×Pen-Strep). DC cells were resuspended in media supplemented with IL-4 (Peprotech, 80 ng/mL) and GM-CSF (Gibco, 80 ng/mL), plated in 6 well microplates, and rested overnight at 37° C. (5% CO2). The following day, DC cells were counted and plated in a 96 well round bottom microplate at a concentration of 30,000 viable cells per well. Ad5 vectors (Vector Biolabs) were dilute in media to an MOI (Multiplicity Of Infection) of 5000 based on Plaque Forming Units. Ad5 vectors for the CEF pool and a “null” were used as controls. DCs were transduced with Ad5 vectors overnight at 37° C. (5% CO2). The following day, the Ad5 vectors were washed off the plate by three sequential centrifugation/aspiration steps using sterile Phosphate Buffered Saline. After the final wash, transduced DCs were resuspended in 100 μL media. Autologous CD3+ Pan-T cells isolated from human normal PBMCs were thawed using media. Pan-T cells were added to the irradiated DCs at 300,000 viable cells per well (100 μL/well). Human IL-15 (Peprotech) was added to all wells at final concentration of 10 ng/mL.
Plates were incubated at 37° C. (5% CO2) for a total of 12 days. Media was refreshed every 2-3 days with IL-15 (10 ng/mL final concentration) and IL-2 (R&D systems, 10 IU/mL final concentration). On day 11 lyophilized peptides (15-mer overlapping peptides) were solubilized in 100% DMSO and pooled by neoantigen to between 5 mg/mL and 20 mg/mL. Neoantigen peptides pools were added to cells for a final concentration of 2.5 μg/mL to 10 μg/mL. CEF Peptide Pool “Plus” (Cellular Technologies, Ltd.) was utilized as a positive control and DMSO at the same final concentration as the experimental peptides was utilized as a negative control. Protein Inhibitor Cocktail (eBioscience) was added to every well and plate was incubated overnight at 37° C. (5% CO2).
On day 12, cells were stained for intracellular flow cytometry analysis. The cells were washed with PBS and stained with Live/Dead Fixable Aqua Dead Cell stain (Thermo-Fisher). Following the live/dead stain, cells were blocked using Biotin-Free Fc Receptor Blocker (Accurate Chemical & Scientific Corp). Extracellular cellular flow panel ([…] per well in 50 μL) consisted of CD3 PerCP-Cy5.5 (Biolegend), CD4 BV421 (Biolegend), and CD8 APC-Cy7 (Biolegend). After extracellular staining, cells were fixed using Foxp3/fTranscription Factor Staining Buffer Set (eBioscience) and stained for intracellular proteins (1:50 dilution) using TNFα FITC (R&D Systems) and IFNγ BV785 (Biolegend). Cells were washed and resuspended in stain buffer and analyzed using a BD Celesta flow cytometer.
Flow cytometry cell staining analysis was completed using FlowJo v10. Cells were gated on live, singlet, CD3+ cells. The CD8+ and CD4+ T cells were analyzed for TNFα/IFNγ expression and the frequency of double positive TNFα/IFNγ CD8+ and the frequency of double positive TNFα/IFNγ CD4+ T cells were recorded. Responses were assessed to be positive when the frequency of double positive TNFα/IFNγ CD8+ or TNFα/IFNγ CD4+ T cells due to stimulation with an experimental peptide pool was increased greater than or equal to 3-fold over the DMSO only negative control for that donor and at least 0.01%.
For three of the neoantigens, an Ad5 vector was designed to transduce normal Dendritic cells with the neoantigens. This assay assessed the ability of the endogenously expressed and presented neoantigens to activate autologous T cells following overlapping 15-mer peptide pools restimulation using the endogenous autologous normal donor restimulation assay described in Example 1 utilizing TNFα and IFNγ production by CD8^+ and CD4^+ T cells as a readout. […] Sixteen donors were used to assess endogenous immunogenicity.

“YEAGMTLGGKILFFLFLLLPLSPFSLIF (listed as Homo sapiens) [Neoantigen P87]”: the “Maximum Fold Change Over Background CD4+ cells” value is 2.41, the “Maximum Fold Change Over Background CD8+ cells” value is 2.47, the “Maximum Frequency of TNFα/IFNγ Double Positive CD4+ T cells” value is 0.079 and the “Maximum Frequency of TNFα/IFNγ Double Positive CD8+ T cells” value came out at 0.39.

Values taken from patent publication US12295997B2, “Prostate neoantigens and their uses” (Janssen Biotech, Inc., priority 2020, dated 2025).
